Patent US20230338285A1, “PHARMACEUTICAL COMPOSITION COMPRISING HYDROXYCHLOROQUINE AND USES THEREOF” (priority 2020, published 2023)
Read-outs that look alike come from different tables or passages of the source.

Columns and labels:
2019-nCoV = conditions: block of COVID-19 infection in vitro, Wang et al.; read-out: half-maximal effective concentration (EC50); cited from earlier work
[1] = Solubility in propylene glycol and solvent mixtures by LC-HR-MS; type: physicochemical; conditions: for Accuracy (ratio of measured concentration to calculated concentration): propylene glycol, 40° C.
Description: Chloroquine and hydroxychloroquine were synthesized according to published procedures at WuXi AppTec (Wuhan, China). […] The solubility of HCQ in propylene glycol (PG) was evaluated by preparing formulations at various concentrations and assessing their solubility by performing liquid chromatography-high resolution-mass spectrometry (LC-HR-MS). The solubility of HCQ in PG was measured at 40° C. and atmospheric pressure (~100 kPa) -Table 1a.
The solubility of HCQ in different solvent mixtures comprising propylene glycol (PG); glycerol and/or water was evaluated by preparing formulations and assessing the solubility of HCQ by performing liquid chromatography-high resolution-mass spectrometry (LC-HR-MS) as shown in Table 1b.

[2] = Aerosol particle size distribution (Aerodynamic Particle Sizer); type: physicochemical; conditions: thermal aerosol from 100 mg/mL in propylene glycol, heater 200-220° C.
Description: A liquid formulation containing a solution of hydroxychloroquine in propylene glycol at a concentration of 100 mg/mL was prepared and filled into a consumable cartridge.
The liquid formulation was nebulized using a device comprising a mesh heating element as described in WO2018153608 (A1). Aerosol from the liquid formulation was generated by thermal aerosolization. The temperature of the heater was maintained between 200-220° C. A programmable dual syringe pump (PDSP) with a simulated inhalation regimen of 55 mL delivered in 3 sec puff duration and 30 sec interval (including the subsequent discharge from the pump during piston down stroke) was used to transfer the aerosol. The PDSP pump was attached to a SUPER SESI (Fossilion Technologies, Madrid, SP) interfaced with Q Exactive HF system (Thermo Fisher Scientific, Waltham, MA, USA) as shown in FIG. 2.
The particle size distribution of the aerosols was measured using the TSI 3321 Aerodynamic Particle Sizer (APS, TSI Incorporated, Shoreview, MN, USA). To reach the operational flowrate of 5 L/min and to stay within the limits of detection concerning large particle number densities obtained in the experiment, the […] was connected with a 3302A Aerosol Diluter (TSI Incorporated), upstream of the APS using a 30 cm conductive tube with a 1-cm inner diameter (FIG. 3). […]

[3] = Thermal decomposition during thermal aerosolization (LC-HR-MS); type: physicochemical; conditions: LC-HR-MS of aerosol trapped on Cambridge pad filter
Description: Using the described aerosol generation and characterization setup, the aerosol produced from the device was pushed through the Cambridge filter pad connected to an impinger filled with 5 mL of ethanol to assess the transfer amount of hydroxychloroquine from the liquid to the aerosol. Compound extraction from the Cambridge filter pads was performed by adding 5 mL of ethanol from the impinger and another 5 mL of fresh ethanol to the filter pad. The two fractions were combined (total volume of 10 mL) for quantification. Chemical analyses for drug solubility and transfer rate assessment were performed by liquid chromatography equipped with a HILIC BEH amide column (50 × 3 mm, 1.7 µm, Waters, Manchester, UK) coupled to high resolution accurate mass spectrometry (Vanquish Duo - Q Exactive HF system, LC-HR-MS, ThermoFisher Scientific, Waltham, MA, USA). Mobile phases were composed of acetonitrile containing 0.1% formic acid and 10 mM ammonium formate. Samples were diluted to fit the calibration curve built from 9-calibrant levels (5-100 ng/mL). A volume of 5 µL diluted solution was injected. Mass spectrometry detection was realized in positive electrospray ionization with a mass resolution of 60,000 by scanning full scan mass from m/z 50-350.

[4] = system: SARS-CoV-2 clinically isolated strain; conditions: cited from earlier work; for EC50: Vero cells, Yao et al.

CCN(CC)CCCC(C)Nc1ccnc2cc(Cl)ccc12 (centres unmarked) [chloroquine]
EC50 (2019-nCoV): 1130 nM

hydroxychloroquine
Solubility ([1]; Mix 1: propylene glycol 75%, glycerol 20%, water 5%): 151 mg/mL
Solubility ([1]; Mix 2: propylene glycol 75%, glycerol 15%, water 10%): 141 mg/mL
Solubility ([1]; Mix 3: propylene glycol 45%, glycerol 45%, water 10%): 42 mg/mL
Solubility ([1]; Mix 4: propylene glycol 90%, glycerol 10%, water 0%): 150 mg/mL
Solubility ([1]; Mix 5: propylene glycol 90%, glycerol 0%, water 10%): 324 mg/mL
Solubility ([1]; Mix 6: propylene glycol 85%, glycerol 0%, water 15%): 261 mg/mL
Solubility ([1]; Mix 7: propylene glycol 95%, glycerol 0%, water 5%): 322 mg/mL
Solubility ([1]; Mix 8: propylene glycol 100, glycerol 0%, water 0%): 139 mg/mL
Accuracy (ratio of measured concentration to calculated concentration) ([1]; calculated concentration 1.3 mg/mL): 78%
Accuracy (ratio of measured concentration to calculated concentration) ([1]; calculated concentration 10.2 mg/mL): 103%
Accuracy (ratio of measured concentration to calculated concentration) ([1]; calculated concentration 20.9 mg/mL): 104%
Accuracy (ratio of measured concentration to calculated concentration) ([1]; calculated concentration 40.6 mg/mL): 92%
Accuracy (ratio of measured concentration to calculated concentration) ([1]; calculated concentration 100.6 mg/mL): 96%
median aerodynamic diameter of aerosol particles [2]: 1.3 µm
decomposition during thermal aerosolization [3]: no decomposition
EC50 ([4]; 24 hours): 6.14 µM
EC50 ([4]; 48 hours): 0.72 µM
in vitro EC50 ([4]; value from Yao et al.): 242 ng/mL
in vitro EC90 ([4]; value from Yao et al.): 1680 ng/mL
